Results: patent US20160150784A1, “SYNERGISTIC PESTICIDAL COMPOSITIONS AND RELATED METHODS” (Dow AgroSciences LLC, priority 2013, published 2016)
Values joined by “and” are separate entries in the source; they are usually repeats but may differ in a detail not shown here. Equal entries are not always repeated.

Columns and labels:
[1] = tested on: diamondback moth, Plutella xylostella; test: Cabbage leaf disc bioassay (track sprayer, 400 L/Ha) on second instar diamondback moths, percent control, synergy by Colby's equation; format: in vivo; conditions: single active
Excerpt: (§1) The method described in Colby S. R., “Calculating Synergistic and Antagonistic Responses of Herbicide Combinations,” Weeds, 1967, 15, 20-22 was used to determine an existence of synergic effect between the ryanodine receptor modulator compound and the pesticide (I), (II), or any agriculturally acceptable salt thereof in the formulated pesticidal composition. In this method, the percent insect control of the formulated pesticidal composition as observed in the study was compared to the “expected” percent control (E) as calculated by equation (1) (hereinafter “Colby's equation”) below: […]
(§2) where • X is the percentage of control with the first pesticide at a given rate (p), • Y is the percentage of control with the second pesticide at a given rate (q), and • E is the expected control by the first and second pesticide at a rate of p+q.
Bioassays were performed for different active compounds. Cabbage plants with about two to three new-growth—true leaf stage were treated with different pesticides using a track sprayer application at 400 L/Ha spray volume. Three second instar diamondback moths, Plutella xylostella, were infested onto each leaf disc.
Bioassays were performed for different active compounds. Cabbage plants with about two to three new-growth—true leaf stage were treated with different pesticides using a track sprayer at a rate of 400 L/Ha. Three second instar diamondback moths, Plutella xylostella, were infested onto each leaf disc.

[2] = tested on: brown stink bug, Euschistus heros; test: Diet bioassay on second-instar nymphs of brown stink bug, percent control, synergy by Colby's equation; format: in vivo; conditions: single active, dose rate 0.04 weight %
Excerpt: as §1, §2
The percent control of the pesticidal composition against brown stink bug, Euschistus heros, was determined as the “Observed” action, and compared to those obtained by using about 0.04 weight % of compound II, and using about 0.000156 weight % of cyantraniliprole alone. The “Colby's Expected Action” was calculated using Colby's equation as discussed previously.

CCN(C(=O)CCSCCC(F)(F)F)c1cn(-c2cccnc2)nc1Cl [Compound I, N-(3-chloro-1-(pyridin-3-yl)-1H-pyrazol-4-yl)-N-ethyl-3-((3,3,3-trifluoropropyl)thio)propanamide]
% Control Three Days After Treatment ([1]; dose rate 0.0025 weight %): 4.35% and 0%

CNC(=O)c1cc(Cl)cc(C)c1NC(=O)c1cc(Br)nn1-c1ncccc1Cl [Chlorantraniliprole, 3-bromo-N-[4-chloro-2-methyl-6-[(methylamino)carbonyl]phenyl]-1-(3-chloro-2-pyridinyl)-1H-pyrazole-5-carboxamide]
% Control Three Days After Treatment ([1]; dose rate 0.0000347 weight %): 25% | % Control Three Days After Treatment ([1]; dose rate 0.000104 weight %): 62.5% | % Control Three Days After Treatment ([1]; dose rate 0.0003125 weight %): 66.67%

Cc1cc(C(F)(C(F)(F)F)C(F)(F)F)ccc1NC(=O)c1cccc(I)c1C(=O)NC(C)(C)CS(C)(=O)=O [Flubendiamide]
% Control Three Days After Treatment ([1]; dose rate 0.0003125 weight %): 8.70%

CCN(C(=O)CC[S+]([O-])CCC(F)(F)F)c1cn(-c2cccnc2)nc1Cl (stereo not drawn) [Compound II, N-(3-chloro-1-(pyridin-3-yl)-1H-pyrazol-4-yl)-N-ethyl-3-((3,3,3-trifluoropropyl)sulfinyl)propanamide]
% Control Six Days After Treatment [2]: 0%
